{"source": "patent EP0135897A2", "about": "(priority 1983, dated 1985)", "key": {"[1]": {"system": "Reispflanzen (Varietät: Asahi)", "conditions": "in vivo"}, "[2]": {"system": "Brusone-Pilzes (Piricularia oryzae)", "type": "in vivo", "conditions": "Wirkstoff-Konzentration 0,8 g/m^2 applied to the water surface; rice (Asahi) inoculated 4 days later; assessed 7 days after inoculation; three pots per test"}}, "data": [{"smiles": "CC1(CCl)C(COC(=O)CCl)C1(Cl)Cl", "note": "[D-1, 2,2-Dichloro-(cis)-3-methyl-(trans)-3-chloromethylcyclopropanmethanol-chloroacetat]", "values": [{"measurement": "Phyto-toxizität", "setting": "[1]", "value": "-"}, {"measurement": "Bekämpfungs-Index (%)", "setting": "[2]", "value": 100, "unit": "%"}]}, {"smiles": "CC1(CCl)C(CO)C1(Cl)Cl", "note": "(stereo not drawn) [Verbindung d. Erfindung, 2,2-Dichloro-(cis)-3-methyl-(trans)-3-chloromethylcyclopropanmethanol]", "values": [{"measurement": "Phyto-toxizität", "setting": "[1]", "value": "-"}, {"measurement": "Bekämpfungs-Index (%)", "setting": "[2]", "value": 100, "unit": "%"}]}]}
